According to patent publication US20230390243A1, “Compositions and Uses Thereof” (Purposeful IKE, priority 2020, published 2023):
Where “and” joins values, the source holds several entries; their conditions need not be identical. Equal entries are not always repeated. Where two headings read alike, the source gives them in different places.

Legend:
Fmr1 KO mice [1] = assay: Open field test (hyperactivity); assay type: in vivo; set-up: unit not given here; details: for Mean 2 (group mean), Open Field: KO group mean, n 10
Procedure: (§1) Fmr1 KO mice backcrossed to the FVB strain and WT littermates were used during experiments. TransnetXY Automated Genotyping (www.transnetyx.com/). TRANSNETYX, INC., 8110 Cordova Rd. Suite 119, Cordova, TN 38016, USA was used for genotyping. The animals were pretreated for 14 days. The active ingredients of Sumatriptan and Ergoloid were in a water carrier, whereas oxitriptan was in a methanol carrier.
(§2) The mice were housed in plastic cages (35×30×12 cm), 5 in each. The room temperature (21±2° C.),relative humidity (55±5%), a 12-h light-dark cycle (lights on 7 a.m.-7 p.m.) and air exchange (16 times per h) were automatically controlled. The animals had free access to commercial food pellets and water. Testing was conducted during the light phase. Ten mice per treatment group were used for the AGS experiments. Experiments were conducted in line with the requirements of the UK Animals (Scientific Procedures) Act, 1986.
(§3) All experiments were conducted with the experimenter blind to genotype and drug treatment. Separate investigators prepared and coded dosing solutions, allocated the mice to the study treatment groups, dosed the animals, and collected the Audiogenic Seizure data.
(§4) Behavior testing was conducted at 2 weeks. The behavioral tests were as follows: 1. Hyperactivity: Open field; 2. Stereotypy: Self-grooming; 3. Sociability: Three chamber partition test; 4. Memory and Learning: Novel Object Recognition; 5. Anxiety: hyponeophagia; and 6. Test of daily living: marble burying
For hyperactivity, the open field test (OFT) is a common measure of exploratory behavior and general activity in both mice and rats, where both the quality and quantity of the activity can be measured. Principally, the open field (OF) is an enclosure, generally square, rectangular, or circular in shape with surrounding walls that prevent escape. The OFT is also commonly used as a mechanism to assess the sedative, toxic, or stimulant effects of compounds (Gould 2009).
(§5) The treatment of the mice with OX (Oxitriptan), SU (Sumatriptan), ER (Ergoloid mesylates) were according to the matrix shown below in Table 1.

Fmr1 KO mice [2] = assay: Stereotypy: self-grooming; assay type: in vivo; set-up: unit not given here; details: for Mean Diff. (KO-V vs. group), Stereotypy: Dunnett's test against KO-V; for Mean Diff. (KO-V vs. group), Stereotypy / Data table Stereotypy (individual animals): Sumatriptan 20, Oxitriptan 40, Ergoloid 4 mg/kg, Ergoloid 2 + Oxitriptan 40 mg/kg; for Data table Stereotypy (individual animals): KO mice, one value per animal
Procedure: as §1, §2, §3, §4
For stereotypy, self-grooming was assessed. Self-grooming in animals is an innate behaviour that is involved in hygiene maintenance and other physiologically important processes, including thermoregulation, social communication and de-arousal. It is one of the most frequently observed behaviours in awake rodents and has a patterned, sequential organization with characteristic cephalocaudal progression (Kalueff 2016).
as §5

Fmr1 KO mice [3] = assay: Sociability: three chamber partition test; assay type: in vivo; set-up: unit not given here; details: for Mean 2 (F_ group mean), Sociability / Mean Diff. (F_KO-V vs. F_ group), Sociability: F_ values; for Mean 2 (F_ group mean), Sociability / Mean 2 (N_ group mean), Sociability / Mean 2 (group mean), Sociability: KO group mean; for Mean 2 (F_ group mean), Sociability / Mean 2 (N_ group mean), Sociability: table against F_KO-V; for Mean 2 (F_ group mean), Sociability: doses as E34; for Mean Diff. (F_KO-V vs. F_ group), Sociability: Ergoloid 2 + Oxitriptan 40 mg/kg; for Mean 2 (N_ group mean), Sociability: doses as E37; for Mean 2 (group mean), Sociability: table against N_WT-V (mean 99.10), doses as E13; for Mean Diff. (N_WT-V vs. group), Sociability: Dunnett's test against N_WT-V, Ergoloid 2 + Sumatriptan 10, Ergoloid 2 + Oxitriptan 40 mg/kg
Procedure: as §1, §2, §3, §4
For sociability a three chamber partition test was utilized. The three-chamber paradigm test known as Crawley's sociability and preference for social novelty protocol has previously been successfully employed to study social affiliation and social memory in several inbred and mutant mouse lines. The main principle of the test was based on the free choice by a subject mouse to spend time in any of three box's compartments during two experimental sessions, including indirect contact with one or two mice with which it was unfamiliar (Kaidanovich-Beilin 2011).
as §5

Fmr1 KO mice [4] = assay: Memory and learning: Novel Object Recognition (NOR); assay type: in vivo; set-up: unit not given here; details: for Mean 2 (group mean), NOR: table against N_WT-V (mean 13.90), doses as E10; for Mean Diff. (N_WT-V vs. group), NOR: Dunnett's test against N_WT-V, Ergoloid 2 + Sumatriptan 10, Ergoloid 2 + Oxitriptan 40 mg/kg
Procedure: as §1, §2, §3, §4
For memory and learning, a novel object recognition (NOR) task was used to evaluate the rodents' ability to recognize a novel object in the environment. […] The task procedure consists of three phases: habituation, familiarization, and test phase (Antunes 2012).
as §5

Fmr1 KO mice [5] = assay: Anxiety: hyponeophagia test; assay type: in vivo; set-up: unit not given here; details: for Mean Diff. (KO-V vs. group), Hyponeophagia: Dunnett's test against KO-V, Ergoloid 2 + Oxitriptan 40 mg/kg; for Mean 2 (group mean), Hyponeophagia: KO group mean, n 10
Procedure: as §1, §2, §3, §4
For anxiety a hyponeophagia test was conducted. Mice and rats cannot vomit, due to the tightness of the cardiac sphincter of the stomach, so to overcome the problem of potential food toxicity they have evolved a strategy of first ingesting only very small amounts of novel substances. The amounts ingested then gradually increase until the animal has determined whether the substance is safe and nutritious. So the old rat-catchers would first put a palatable substance such as oatmeal, which was to be the vehicle for the toxin, in the infested area (Deacon 2011).
as §5

Fmr1 KO mice [6] = assay: Test of daily living (marble burying / nesting); assay type: in vivo; set-up: scale not given here; details: for Mean Diff. (KO-V vs. group), Test of daily living: Dunnett's test against KO-V, Ergoloid 2 + Oxitriptan 40 mg/kg; for Mean Diff. (KO-V vs. group), Test of daily living / Mean Diff. (WT-V vs. group), Test of daily living: Sumatriptan 20, Oxitriptan 40, Ergoloid 4 mg/kg; for Mean Diff. (WT-V vs. group), Test of daily living: Dunnett's test against WT-V, Column F Ergoloid 2 + Sumatriptan 10, Column G Ergoloid 2 + Oxitriptan 40 mg/kg; for Mean 2 (group mean), Test of daily living: KO group mean, n 10
Procedure: as §1, §2, §3, §4
For test of daily living, nesting was assessed as nest building is an innate behavior in rodents, even when raised in laboratory settings. Synthetic and/or natural materials (such as twine, tissue, cotton, paper, and hay) are provided as a gauge of their overall well-being and as an ancillary assessment to predict the possible decline in cognition. Typically, changes in nesting behaviors, such as failure to create a nest, indicate a change in health or welfare. In addition, nesting behavior is sensitive to many environmental and physiological challenges, as well as many genetic mutations underlying pathological disease states (Gaskill 2013).
as §5

FMR1 mice = assay: Behavioral experiments, FXS phenotypes overall; assay type: in vivo; details: summary statement
Procedure: as §1, §4, §5

[7] = cited from earlier work
[8] = test system: patients with autism or Asperger's disorder; details: versus placebo; cited from earlier work
[9] = table against KO-V (mean 8263), doses as E16
[10] = table against WT-V (mean 4207), doses as E1
[11] = Dunnett's test against F_KO-V, Sumatriptan 20, Oxitriptan 40, Ergoloid 4 mg/kg
[12] = Fmr1 KO mice, Sumatriptan 20 mg/kg, F column, individual animals
[13] = Fmr1 KO mice, Sumatriptan 20 mg/kg, individual animals
[14] = N_ values, Dunnett's test against F_KO-V, Sumatriptan 20, Oxitriptan 40, Ergoloid 4 mg/kg, Column N Ergoloid 2 + Oxitriptan 40 mg/kg
[15] = N_ values, Sumatriptan 20, Oxitriptan 40, Ergoloid 4 mg/kg
[16] = Sumatriptan 20, Oxitriptan 40, Ergoloid 4 mg/kg
[17] = table against KO-V (mean 237.3), doses as E22
[18] = table against WT-V (mean 145.5), doses as E4
[19] = table against KO-V (mean 1.200), doses as E25
[20] = table against WT-V (mean 4.800), doses as E7
[21] = Fmr1 KO mice, Oxitriptan 40 mg/kg, F column, individual animals
[22] = Fmr1 KO mice, Oxitriptan 40 mg/kg, individual animals

Structure (SMILES) | Mean 2 (group mean), Open Field (Fmr1 KO mice [1]; [9]) | Mean 2 (group mean), Open Field (Fmr1 KO mice [1]; [10]) | Mean Diff. (KO-V vs. group), Stereotypy (Fmr1 KO mice [2]) | Data table Stereotypy (individual animals) (Fmr1 KO mice [2]) | Mean 2 (F_ group mean), Sociability (Fmr1 KO mice [3]) | Mean Diff. (F_KO-V vs. F_ group), Sociability (Fmr1 KO mice [3]; [11]) | Mean 2 (N_ group mean), Sociability (Fmr1 KO mice [3]; N_ values) | Mean 2 (group mean), Sociability (Fmr1 KO mice [3]; N_ values) | Mean Diff. (N_WT-V vs. group), Sociability (Fmr1 KO mice [3]; [15]) | Mean 2 (group mean), NOR (Fmr1 KO mice [4]; N_ values, KO group mean) | Mean Diff. (N_WT-V vs. group), NOR (Fmr1 KO mice [4]; [15]) | Mean Diff. (KO-V vs. group), Hyponeophagia (Fmr1 KO mice [5]; [16]) | Mean 2 (group mean), Hyponeophagia (Fmr1 KO mice [5]; [17]) | Mean 2 (group mean), Hyponeophagia (Fmr1 KO mice [5]; [18]) | Mean Diff. (KO-V vs. group), Test of daily living (Fmr1 KO mice [6]) | Mean Diff. (WT-V vs. group), Test of daily living (Fmr1 KO mice [6]) | Mean 2 (group mean), Test of daily living (Fmr1 KO mice [6]; [19]) | Mean 2 (group mean), Test of daily living (Fmr1 KO mice [6]; [20]) | also measured
CNS(=O)(=O)Cc1ccc2[nH]cc(CCN(C)C)c2c1 [Sumatriptan, 1-[3-[2-(dimethylamino)ethyl]-1H-indol-5-yl]-N-methylmethanesulfonamide] | 7416 | 7416 | 14.60 | 29 and 35 and 31 (2×) and 30 (3×) and 32 and 28 and 33 | 62.20 | 19.40 | 98.20 | 98.20 | 0.9000 | 7.300 | 6.600 | 82.60 | 154.7 | 154.7 | −3.500 | 0.1000 | 4.700 | 4.700 | Mean Diff. (WT-V vs. group), Open Field (Fmr1 KO mice [1]; Dunnett's test against WT-V, Sumatriptan 20 mg/kg, 5-HTP 80 mg/kg, EM 4 mg/kg, Column F Ergoloid 2 + Sumatriptan 10 mg/kg, Ergoloid 2 + Oxitriptan 40 mg/kg): −3209; Sociability, F_KO-Sumatriptan (Fmr1 KO mice [3]; [12]): 61 (2×) and 64 and 65 (2×) and 60 (3×) and 63 (2×); Sociability, N_KO-Sumatriptan (Fmr1 KO mice [3]; [13]): 99 and 97 (2×) and 103 and 98 and 90 and 102 and 100 and 95 and 101; Mean Diff. (F_KO-V vs. N_ group), Sociability (Fmr1 KO mice [3]; [14]): −18.80; Mean Diff. (F_KO-V vs. F_ group), NOR (Fmr1 KO mice [4]; F_ values, Dunnett's test against F_KO-V, Sumatriptan 20, Oxitriptan 40, Ergoloid 4 mg/kg, Ergoloid 2 + Oxitriptan 40 mg/kg): −0.2000; Novel Object Recognition, F_KO-Sumatriptan (Fmr1 KO mice [4]; [12]): 9 (2×) and 5 (2×) and 8 (2×) and 7 (2×) and 4 and 6; Novel Object Recognition, N_KO-Sumatriptan (Fmr1 KO mice [4]; [13]): 6 (2×) and 8 (2×) and 9 (3×) and 5 and 7; Mean Diff. (F_KO-V vs. N_ group), NOR (Fmr1 KO mice [4]; [14]): −0.7000; Hyponeophagia, KO-Sumatriptan (Fmr1 KO mice [5]; [13]): 154 (2×) and 157 (2×) and 148 and 153 and 155 and 158 and 159 and 152; Tests of daily living, KO-Sumatriptan (Fmr1 KO mice [6]; [13]): 5 (7×) and 4 (3×); effect on FXS phenotypes (FMR1 mice): ameliorates the FXS phenotypes in FMR1 mice; half life ([7]; administered orally): 1.7 h; half life ([7]; administered subcutaneous): 1.9 h; GH response to sumatriptan [8]: significantly greater than to placebo
N[C@@H](Cc1c[nH]c2ccc(O)cc12)C(=O)O [Oxitriptan] | 4720 | 4720 | 10.10 | 34 and 37 (2×) and 40 and 36 and 38 (2×) and 33 and 31 and 29 | 52.10 | 29.50 | 98.80 | 96.80 | 0.3000 | 10.82 | 3.082 | 91.10 | 146.2 | 146.2 | −3.700 | −0.1000 | 4.800 | 4.900 | Mean Diff. (KO-V vs. group), Open Field (Fmr1 KO mice [1]; Dunnett's test against KO-V, Sumatriptan 20, Oxitriptan 80, Ergoloid 4 mg/kg, Ergoloid 2 + Oxitriptan 40 mg/kg): 3543; Mean 2 (group mean), Stereotypy (Fmr1 KO mice [2]; KO group mean, n 10, table against KO-V (mean 45.40), doses as E19): 35.30; Sociability, F_KO-Oxitriptan (Fmr1 KO mice [3]; [21]): 54 and 52 (2×) and 50 (2×) and 53 (2×) and 51 and 55; Sociability, N_KO-Oxitriptan (Fmr1 KO mice [3]; [22]): 104 and 98 (2×) and 97 (2×) and 100 (2×) and 99 (2×) and 96; Novel Object Recognition, F_KO-Oxitriptan (Fmr1 KO mice [4]; [21]): 6 (4×) and 5 (3×) and 9 (2×) and 8 (2×); Novel Object Recognition, N_KO-Oxitriptan (Fmr1 KO mice [4]; [22]): 10 (4×) and 12 and 14 and 8 (2×) and 15 and 13 and 9; Mean 2 (N_ group mean), NOR (Fmr1 KO mice [4]; N_ values, KO group mean, table against F_KO-V, doses as E31): 10.82; Mean Diff. (WT-V vs. group), Hyponeophagia (Fmr1 KO mice [5]; Dunnett's test against WT-V, Sumatriptan 20, Oxitriptan 40, Ergoloid 4 mg/kg, Column F Ergoloid 2 + Sumatriptan 10, Column G Ergoloid 2 + Oxitriptan 40 mg/kg): −0.7000; Hyponeophagia, KO-Oxitriptan (Fmr1 KO mice [5]; [22]): 151 and 145 and 150 and 140 (2×) and 147 and 143 and 152 and 148 and 146; Tests of daily living, KO-Oxitriptan (Fmr1 KO mice [6]; [22]): 5 (9×) and 4
